Results as given in ChEMBL document CHEMBL4270669 (J Med Chem, 2018).
The source made the active and inactive calls. The rule behind the calls is not given here.

What was measured:
Rattus norvegicus [1] = test: Increase in insulin levels in Sprague-Dawley rat plasma at 10 mg/kg, po administered as single dose; format: functional, organism-based
[2] = target: Phosphatidylinositol 3-kinase catalytic subunit type 3 (Homo sapiens, UniProt Q8NEB9); test: Inhibition of human VPS34 (282 to 879 residues) expressed in mammalian expression system by KINOMEscan assay
Phosphatidylinositol 3-kinase catalytic subunit type 3, sequence (Q8NEB9 whole entry, the tested form may be a part): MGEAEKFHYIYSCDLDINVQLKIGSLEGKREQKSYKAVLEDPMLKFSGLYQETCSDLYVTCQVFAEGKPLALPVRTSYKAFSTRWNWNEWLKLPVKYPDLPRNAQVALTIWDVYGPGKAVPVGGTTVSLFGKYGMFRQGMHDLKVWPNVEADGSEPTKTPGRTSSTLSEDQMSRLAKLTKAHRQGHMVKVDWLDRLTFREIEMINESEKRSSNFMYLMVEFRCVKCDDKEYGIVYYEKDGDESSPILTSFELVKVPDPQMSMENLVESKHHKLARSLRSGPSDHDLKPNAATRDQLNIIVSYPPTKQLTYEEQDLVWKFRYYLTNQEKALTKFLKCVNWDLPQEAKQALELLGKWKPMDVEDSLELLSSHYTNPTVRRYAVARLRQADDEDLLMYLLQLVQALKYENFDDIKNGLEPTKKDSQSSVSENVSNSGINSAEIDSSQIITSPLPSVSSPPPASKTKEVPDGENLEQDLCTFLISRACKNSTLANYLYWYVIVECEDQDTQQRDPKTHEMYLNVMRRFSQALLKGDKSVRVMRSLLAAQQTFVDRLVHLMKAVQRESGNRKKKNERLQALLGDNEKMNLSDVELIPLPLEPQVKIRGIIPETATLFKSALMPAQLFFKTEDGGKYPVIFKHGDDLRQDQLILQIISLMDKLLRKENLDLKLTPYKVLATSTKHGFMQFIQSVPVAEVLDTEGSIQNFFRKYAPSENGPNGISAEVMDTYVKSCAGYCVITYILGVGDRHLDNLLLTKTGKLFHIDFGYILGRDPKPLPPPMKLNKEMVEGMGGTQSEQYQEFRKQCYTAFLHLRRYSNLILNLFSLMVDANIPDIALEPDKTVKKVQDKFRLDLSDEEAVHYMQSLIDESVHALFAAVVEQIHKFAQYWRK

Mus musculus [3] = test: Increase in insulin levels in C57BL/6JRj mouse plasma at 50 mg/kg, po administered as single dose; format: functional, organism-based
[4] = target: T1, Phosphatidylinositol 4,5-bisphosphate 3-kinase catalytic subunit delta isoform (Homo sapiens, UniProt O00329)
T1 sequence (O00329 whole entry): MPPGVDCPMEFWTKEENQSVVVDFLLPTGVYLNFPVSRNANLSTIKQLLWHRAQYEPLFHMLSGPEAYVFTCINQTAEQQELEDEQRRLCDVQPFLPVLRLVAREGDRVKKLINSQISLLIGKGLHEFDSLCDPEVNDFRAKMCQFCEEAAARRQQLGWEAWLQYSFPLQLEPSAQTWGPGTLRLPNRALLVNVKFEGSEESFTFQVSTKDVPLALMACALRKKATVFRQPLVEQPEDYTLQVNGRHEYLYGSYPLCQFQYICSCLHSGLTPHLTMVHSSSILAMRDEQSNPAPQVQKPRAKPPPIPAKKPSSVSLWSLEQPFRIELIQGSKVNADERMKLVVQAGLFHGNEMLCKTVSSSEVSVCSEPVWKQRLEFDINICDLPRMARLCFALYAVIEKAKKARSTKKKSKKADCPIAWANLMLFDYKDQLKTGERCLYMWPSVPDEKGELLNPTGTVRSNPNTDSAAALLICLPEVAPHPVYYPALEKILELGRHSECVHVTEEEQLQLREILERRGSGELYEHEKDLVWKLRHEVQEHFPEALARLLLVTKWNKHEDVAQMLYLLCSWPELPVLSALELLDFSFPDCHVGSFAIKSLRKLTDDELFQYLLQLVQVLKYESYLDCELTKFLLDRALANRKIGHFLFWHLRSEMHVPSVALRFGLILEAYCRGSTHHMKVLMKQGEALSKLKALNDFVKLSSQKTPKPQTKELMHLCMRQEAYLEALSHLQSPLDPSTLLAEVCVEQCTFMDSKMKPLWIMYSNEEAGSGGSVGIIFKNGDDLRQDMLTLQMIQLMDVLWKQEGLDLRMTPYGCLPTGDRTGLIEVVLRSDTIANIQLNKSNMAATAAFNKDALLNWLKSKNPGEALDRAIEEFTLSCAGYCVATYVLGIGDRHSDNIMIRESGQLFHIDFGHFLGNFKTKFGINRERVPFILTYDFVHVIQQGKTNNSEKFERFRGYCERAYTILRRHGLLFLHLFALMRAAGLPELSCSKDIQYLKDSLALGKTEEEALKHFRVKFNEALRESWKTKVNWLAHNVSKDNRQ
Description: Inhibition of human PI3Kdelta (108 to 1044 residues) expressed in mammalian expression system by KINOMEscan assay

[5] = target: Serine/threonine-protein kinase mTOR (Homo sapiens, UniProt P42345)
Description: Inhibition of human mTOR (1382 to 2549 residues) expressed in mammalian expression system by KINOMEscan assay

[6] = Ratio of drug level in Sprague-Dawley rat brain to plasma at 10 mg/kg, po administered as single dose; format: ADME, organism-based; settings: read-out: BPR
[7] = target: Phosphatidylinositol 4,5-bisphosphate 3-kinase catalytic subunit beta isoform (Homo sapiens, UniProt P42338)
Phosphatidylinositol 4,5-bisphosphate 3-kinase catalytic subunit beta isoform, sequence (P42338 whole entry, canonical isoform): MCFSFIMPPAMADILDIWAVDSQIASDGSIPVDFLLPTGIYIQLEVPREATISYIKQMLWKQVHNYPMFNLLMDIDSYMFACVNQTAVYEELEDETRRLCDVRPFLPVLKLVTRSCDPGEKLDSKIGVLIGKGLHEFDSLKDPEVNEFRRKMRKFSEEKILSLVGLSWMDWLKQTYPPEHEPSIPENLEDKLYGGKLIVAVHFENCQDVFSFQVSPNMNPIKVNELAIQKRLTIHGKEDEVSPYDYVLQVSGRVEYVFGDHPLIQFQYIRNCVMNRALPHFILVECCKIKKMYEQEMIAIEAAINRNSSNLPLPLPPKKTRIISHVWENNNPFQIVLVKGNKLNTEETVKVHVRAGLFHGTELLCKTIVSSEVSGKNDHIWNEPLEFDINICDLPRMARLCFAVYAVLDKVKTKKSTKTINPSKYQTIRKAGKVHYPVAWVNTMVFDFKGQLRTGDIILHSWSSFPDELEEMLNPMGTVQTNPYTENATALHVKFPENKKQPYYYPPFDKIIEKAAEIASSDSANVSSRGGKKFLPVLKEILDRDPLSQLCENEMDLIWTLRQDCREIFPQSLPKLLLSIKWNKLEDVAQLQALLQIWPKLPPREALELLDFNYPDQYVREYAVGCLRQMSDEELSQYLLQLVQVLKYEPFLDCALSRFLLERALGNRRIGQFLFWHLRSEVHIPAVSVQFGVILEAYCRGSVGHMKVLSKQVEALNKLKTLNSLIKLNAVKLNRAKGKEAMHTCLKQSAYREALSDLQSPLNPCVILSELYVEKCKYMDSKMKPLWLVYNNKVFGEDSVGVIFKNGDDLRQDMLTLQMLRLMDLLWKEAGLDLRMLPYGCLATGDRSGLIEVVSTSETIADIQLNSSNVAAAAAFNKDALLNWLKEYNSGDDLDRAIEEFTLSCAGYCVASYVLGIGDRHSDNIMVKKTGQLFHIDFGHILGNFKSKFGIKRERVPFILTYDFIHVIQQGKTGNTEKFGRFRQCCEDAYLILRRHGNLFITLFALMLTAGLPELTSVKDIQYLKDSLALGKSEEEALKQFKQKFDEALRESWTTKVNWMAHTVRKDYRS
Description: Inhibition of human PI3Kbeta (118 to 1070 residues) expressed in mammalian expression system by KINOMEscan assay

[8] = target: Phosphatidylinositol 4,5-bisphosphate 3-kinase catalytic subunit gamma isoform (Homo sapiens, UniProt P48736)
Phosphatidylinositol 4,5-bisphosphate 3-kinase catalytic subunit gamma isoform, sequence (P48736 whole entry, canonical isoform): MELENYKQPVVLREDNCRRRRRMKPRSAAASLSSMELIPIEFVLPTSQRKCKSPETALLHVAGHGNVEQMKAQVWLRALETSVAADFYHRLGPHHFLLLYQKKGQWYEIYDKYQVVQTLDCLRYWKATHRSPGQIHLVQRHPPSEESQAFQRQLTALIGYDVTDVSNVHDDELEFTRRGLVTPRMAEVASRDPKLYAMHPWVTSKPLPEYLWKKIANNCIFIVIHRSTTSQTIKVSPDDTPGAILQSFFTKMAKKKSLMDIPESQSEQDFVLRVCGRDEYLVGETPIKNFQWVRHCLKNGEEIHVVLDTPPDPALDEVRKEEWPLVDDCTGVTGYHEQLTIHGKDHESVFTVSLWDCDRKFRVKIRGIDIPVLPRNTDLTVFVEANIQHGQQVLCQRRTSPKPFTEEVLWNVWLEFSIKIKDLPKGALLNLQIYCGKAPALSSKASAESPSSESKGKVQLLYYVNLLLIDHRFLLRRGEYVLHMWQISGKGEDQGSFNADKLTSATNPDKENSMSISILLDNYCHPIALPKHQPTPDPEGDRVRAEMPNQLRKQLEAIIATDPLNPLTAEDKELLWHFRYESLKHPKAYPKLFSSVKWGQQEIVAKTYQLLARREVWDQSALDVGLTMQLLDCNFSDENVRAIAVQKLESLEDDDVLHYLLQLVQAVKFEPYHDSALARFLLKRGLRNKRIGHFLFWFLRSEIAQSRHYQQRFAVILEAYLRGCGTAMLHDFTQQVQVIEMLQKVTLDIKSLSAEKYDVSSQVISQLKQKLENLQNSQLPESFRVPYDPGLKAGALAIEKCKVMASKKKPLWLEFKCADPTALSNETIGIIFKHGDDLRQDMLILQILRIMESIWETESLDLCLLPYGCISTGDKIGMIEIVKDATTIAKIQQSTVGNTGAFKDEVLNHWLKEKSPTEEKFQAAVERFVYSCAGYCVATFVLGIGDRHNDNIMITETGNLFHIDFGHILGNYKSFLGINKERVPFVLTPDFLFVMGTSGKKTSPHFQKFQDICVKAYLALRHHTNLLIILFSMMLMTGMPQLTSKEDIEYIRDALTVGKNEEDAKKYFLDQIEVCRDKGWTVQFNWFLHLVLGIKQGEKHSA
Description: Inhibition of human PI3Kgamma (144 to 1102 residues) expressed in mammalian expression system by KINOMEscan assay

[9] = target: Phosphatidylinositol 4-kinase beta (Homo sapiens, UniProt Q9UBF8)
Phosphatidylinositol 4-kinase beta, sequence (Q9UBF8 whole entry, canonical isoform): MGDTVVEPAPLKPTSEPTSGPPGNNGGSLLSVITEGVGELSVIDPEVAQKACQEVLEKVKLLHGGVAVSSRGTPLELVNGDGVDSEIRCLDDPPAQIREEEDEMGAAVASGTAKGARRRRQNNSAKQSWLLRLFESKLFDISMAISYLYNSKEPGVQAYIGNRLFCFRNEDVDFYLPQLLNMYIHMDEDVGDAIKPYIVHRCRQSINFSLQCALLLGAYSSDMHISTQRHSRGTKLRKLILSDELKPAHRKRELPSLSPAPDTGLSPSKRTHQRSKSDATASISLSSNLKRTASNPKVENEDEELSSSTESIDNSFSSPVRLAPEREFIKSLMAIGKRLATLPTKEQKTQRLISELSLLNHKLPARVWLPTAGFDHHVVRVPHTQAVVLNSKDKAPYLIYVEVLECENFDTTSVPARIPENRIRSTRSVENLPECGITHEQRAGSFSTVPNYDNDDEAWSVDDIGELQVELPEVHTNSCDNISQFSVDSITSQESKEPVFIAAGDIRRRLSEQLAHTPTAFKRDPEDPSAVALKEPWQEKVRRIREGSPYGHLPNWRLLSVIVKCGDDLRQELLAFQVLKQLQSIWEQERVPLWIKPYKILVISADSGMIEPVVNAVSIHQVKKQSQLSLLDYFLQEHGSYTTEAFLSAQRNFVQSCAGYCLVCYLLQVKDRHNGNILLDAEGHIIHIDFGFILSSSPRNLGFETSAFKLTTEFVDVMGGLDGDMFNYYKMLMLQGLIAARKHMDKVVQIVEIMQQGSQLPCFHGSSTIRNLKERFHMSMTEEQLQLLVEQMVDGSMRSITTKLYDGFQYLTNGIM
Description: Inhibition of human PI4Kbeta (1 to 828 residues) expressed in mammalian expression system by KINOMEscan assay

[10] = target: Phosphatidylinositol 4,5-bisphosphate 3-kinase catalytic subunit alpha isoform (Homo sapiens, UniProt P42336)
Phosphatidylinositol 4,5-bisphosphate 3-kinase catalytic subunit alpha isoform, sequence (P42336 whole entry, canonical isoform): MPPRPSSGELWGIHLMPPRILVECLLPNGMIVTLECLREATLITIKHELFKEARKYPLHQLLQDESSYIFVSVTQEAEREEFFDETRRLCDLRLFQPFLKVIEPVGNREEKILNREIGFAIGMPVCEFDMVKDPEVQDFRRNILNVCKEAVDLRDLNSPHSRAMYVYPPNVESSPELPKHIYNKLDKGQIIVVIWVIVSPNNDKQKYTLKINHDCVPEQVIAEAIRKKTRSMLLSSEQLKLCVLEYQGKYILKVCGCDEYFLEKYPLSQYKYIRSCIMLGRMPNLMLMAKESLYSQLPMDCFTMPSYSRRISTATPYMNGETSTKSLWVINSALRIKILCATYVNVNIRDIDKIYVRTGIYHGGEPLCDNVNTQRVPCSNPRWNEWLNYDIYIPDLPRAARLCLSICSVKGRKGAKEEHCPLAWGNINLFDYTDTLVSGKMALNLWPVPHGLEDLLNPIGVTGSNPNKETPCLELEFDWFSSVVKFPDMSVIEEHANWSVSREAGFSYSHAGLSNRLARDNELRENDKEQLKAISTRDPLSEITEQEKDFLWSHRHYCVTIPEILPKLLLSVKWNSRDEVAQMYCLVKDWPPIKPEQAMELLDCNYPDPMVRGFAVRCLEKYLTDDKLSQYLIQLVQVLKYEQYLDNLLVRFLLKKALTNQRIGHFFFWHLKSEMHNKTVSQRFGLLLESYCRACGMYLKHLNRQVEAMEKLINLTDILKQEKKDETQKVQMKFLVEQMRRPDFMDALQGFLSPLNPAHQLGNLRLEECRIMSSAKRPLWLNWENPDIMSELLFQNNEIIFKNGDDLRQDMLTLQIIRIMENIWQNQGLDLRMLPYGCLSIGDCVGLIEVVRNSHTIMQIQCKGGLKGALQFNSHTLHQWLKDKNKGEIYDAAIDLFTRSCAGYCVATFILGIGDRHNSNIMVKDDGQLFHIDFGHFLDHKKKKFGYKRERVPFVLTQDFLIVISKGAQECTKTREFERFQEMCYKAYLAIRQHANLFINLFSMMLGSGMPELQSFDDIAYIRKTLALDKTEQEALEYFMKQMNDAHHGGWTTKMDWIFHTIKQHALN
Description: Inhibition of human PI3Kalpha (108 to 1068 residues) expressed in mammalian expression system by KINOMEscan assay

[11] = Drug uptake in Sprague-Dawley rat brain at 10 mg/kg, po administered as single dose after 4 hrs; format: ADME, organism-based; settings: read-out: Drug uptake
Mus musculus [12] = test: Toxicity in BALB/C nude mouse xenografted with human OVCAR3 cells assessed as body weight loss at 50 mg/kg, po administered daily for 28 days relative to control; format: organism-based; settings: in vivo, 672 h
Rattus norvegicus [13] = test: Increase in glucose levels in Sprague-Dawley rat plasma at 10 mg/kg, po administered as single dose after 8 hrs; format: functional, organism-based
Mus musculus [14] = test: Antiepileptic activity in Tsc1flox/flox/GFAP-Cre conditional knocked out mouse model assessed as reduction in seizures at 50 mg/kg, po qd treated from days 21 to 53 postnatal by electroencephalography; format: functional, organism-based
Mus musculus [15] = test: Increase in glucose levels in C57BL/6JRj mouse plasma at 50 mg/kg, po administered as single dose; format: functional, organism-based
OVCAR-3 = test: Antitumor activity against human OVCAR3 cells xenografted in BALB/C nude mouse assessed as tumor growth inhibition at 50 mg/kg, po administered daily for 28 days relative to control; format: functional; settings: OVCAR-3, po, 672 h, read-out: TGI

Kd [2] [µM] | Kd [4] [µM] | Kd [5] [µM] | Kp [6] | Kd [7] [µM] | Kd [8] [µM] | Kd [9] [µM] | Kd [10] [µM] | concentration at 4 h [11] [ng/g] | Compound | Activity (Rattus norvegicus [1]) | Activity (Mus musculus [3]) | Activity (Mus musculus [12]) | Activity (Rattus norvegicus [13]) | Activity (Mus musculus [14]) | Activity (Mus musculus [15]) | inhibition in vivo at 50 mg/kg (OVCAR-3) [%]
8.3 | > 30 | 0.00085 | 0.178 | 20 | 22 | > 30 | 2.7 | 170 | CCC(CC)n1cnc2c(-c3cnc(N)cn3)nc(N3CC4CCC(C3)O4)nc21 | inactive | inactive | – | – | – | – | –
– | – | – | – | – | – | – | – | – | Nc1cc(C(F)(F)F)c(-c2nc(N3CCOCC3)nc(N3CCOCC3)n2)cn1 [BIMIRALISIB] | Active | Active | Non-Toxic | Active | inactive | Active | > 50
23 | 1.5 | – | – | 3.3 | 8.4 | > 30 | 0.033 | – | CNC(=O)c1cccc(-c2ccc3c(N4CCOC[C@@H]4C)nc(N4CCOC[C@@H]4C)nc3n2)c1 [VISTUSERTIB] | – | – | – | – | – | – | –
